This is an account of results in paper PMC12406200, “Structural Basis of PPARγ-Mediated Transcriptional Repression by the Covalent Inverse Agonist FX-909” (Journal of Medicinal Chemistry, 2025).

The target in experiment [1] is T1, PPARγ LBD / NCoR1 corepressor peptide (Homo sapiens, UniProt P37231).
T1 construct: residues 203–477 (isoform 1 numbering) with a TEV-cleavable N-terminal hexa-his-tag; made in house; host or cells: Escherichia coli BL21(DE3), pET46 plasmid
T1 sequence (P37231 203-477 isoform P37231-2): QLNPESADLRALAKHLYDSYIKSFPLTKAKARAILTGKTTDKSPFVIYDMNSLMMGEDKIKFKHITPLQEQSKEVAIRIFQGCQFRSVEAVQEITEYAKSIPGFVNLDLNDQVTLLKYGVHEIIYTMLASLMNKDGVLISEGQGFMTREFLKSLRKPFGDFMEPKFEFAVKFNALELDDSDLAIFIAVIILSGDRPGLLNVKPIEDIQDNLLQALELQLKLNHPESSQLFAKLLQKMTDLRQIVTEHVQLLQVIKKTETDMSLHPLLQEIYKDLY
Kind of experiment: TR-FRET coregulator interaction assay, NCoR1 corepressor peptide. Format: biochemical. To be noted: for EC50: 4 nM 6xHis-PPARγ LBD, 400 nM FITC-NCoR1 peptide, 1 h at 25 °C, n = 3, read-out: NCoR1 TR-FRET EC50 (increase in NCoR1 peptide interaction). The source says:
(§1) We next characterized the ligand set using biochemical assays that report on ligand-dependent changes in the interaction between PPARγ LBD and FITC-labeled peptides derived from NR coregulator proteins that contribute to PPARγ-mediated transcription in cells, including the TRAP220/MED1 coactivator and NCoR1 corepressor. We used time-resolved fluorescence resonance energy transfer (TR-FRET) assays to determine relative ligand potency (or covalent reactivity) and efficacy (via increased or decreased TR-FRET ratio values). […] We performed fluorescence polarization (FP) assays to directly measure binding affinities between the PPARγ LBD and coregulator peptides.
(§2) 2 Biochemical coregulator profiling data. Time-resolved fluorescence resonance energy transfer (TR-FRET) coregulator interaction assay performed with (A) the NCoR1 corepressor peptide or (B) the TRAP220/MED1 coactivator peptide in the presence of the indicated ligands. Data represent mean ± s.e.m. […] Fluorescence polarization (FP) binding assay performed with (C) NCoR1 corepressor peptide or (D) TRAP220/MED1 coactivator peptide in the presence of the indicated ligands. Data represent mean ± s.e.m. […] (E) Pairwise correlation plots between PPARγ-mediated transcription (y-axis) and biochemical coregulator profiling data (x-axis). Spearman correlation coefficients (r p) and associated two-tailed p values are listed.
(§3) Time-resolved fluorescence resonance energy transfer (TR-FRET) coregulator peptide interaction assays were performed in low-volume black 384-well plates (Greiner) using a 23 μL final well volume. Each well contained 4 nM protein (WT or mutant 6xHis-PPARγ LBD), 1 nM LanthaScreen Elite Tb-anti-His Antibody (ThermoFisher #PV5895), and 400 nM FITC-labeled TRAP220/MED1 and NCoR1 peptide in a buffer containing 20 mM potassium phosphate (pH 7.4), 50 mM KCl, 5 mM TCEP, and 0.005% Tween 20. Ligand stocks were prepared via serial dilution in DMSO, added to wells in triplicate (10 μM highest final ligand concentration), and plates were read using BioTek Synergy Neo multimode plate reader after incubation for 1 h at 25 °C.

Experiment [2] has as its target T2, full-length human PPARγ (isoform 2) (Homo sapiens, UniProt P37231).
T2 construct: full-length human PPARγ (isoform 2) expression plasmid; expressed in transfected cells; host or cells: HEK293T (ATCC #CRL-11268)
T2 sequence (P37231 1-505): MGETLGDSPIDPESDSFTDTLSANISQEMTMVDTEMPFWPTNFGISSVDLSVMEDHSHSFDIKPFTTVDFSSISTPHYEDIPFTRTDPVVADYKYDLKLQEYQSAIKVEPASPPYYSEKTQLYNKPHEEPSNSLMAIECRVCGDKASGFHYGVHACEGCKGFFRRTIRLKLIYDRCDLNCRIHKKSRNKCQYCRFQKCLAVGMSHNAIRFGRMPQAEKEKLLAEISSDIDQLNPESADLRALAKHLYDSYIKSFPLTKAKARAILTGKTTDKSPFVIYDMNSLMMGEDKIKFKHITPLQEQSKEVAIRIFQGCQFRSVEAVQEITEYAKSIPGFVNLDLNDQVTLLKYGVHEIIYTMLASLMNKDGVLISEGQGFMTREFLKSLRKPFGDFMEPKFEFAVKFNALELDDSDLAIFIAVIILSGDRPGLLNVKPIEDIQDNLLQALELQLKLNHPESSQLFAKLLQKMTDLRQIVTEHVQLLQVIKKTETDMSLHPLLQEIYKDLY
Kind of experiment: Transcriptional reporter assay (3xPPRE-luciferase) in HEK293T cells transfected with full-length PPARγ. The class given is cell-based. To be noted: for IC50: full-length PPARγ + 3xPPRE-luciferase, 18 h treatment, n = 4, three-parameter fit, read-out: cellular IC50 (decrease in PPARγ-mediated transcription). The method, then: 1 Pharmacological PPARγ ligand set used in this study. (A) Chemical structures and pharmacological properties of the ligands. […] (B) Transcriptional reporter assay performed in HEK293T cells transfected with a full-length PPARγ expression plasmid and a 3xPPRE-luciferase reporter plasmid. Data were normalized to cells treated with DMSO control, represented as mean ± s.d.
After an 18 h incubation, cells were transferred to white 384-well cell culture plates (Thermo Fisher Scientific) at 10,000 cells/well in 20 μL total volume/well. After a 4 h incubation, cells were treated in quadruplicate with 20 μL of either vehicle control (1.5% DMSO in DMEM) or a 3-fold serial dilution of ligands (1 μM highest ligand concentration). After a final 18 h incubation, cells were harvested with 20 μL of Britelite Plus (PerkinElmer), and luminescence was measured on a BioTek Synergy Neo multimode plate reader. Data were plotted in GraphPad Prism as luminescence vs ligand concentration as mean ± s.d. (n = 4) and fit to a three-parameter sigmoidal dose–response curve equation.
(A reporter such as luciferase makes a cellular process visible.)

In experiment [3] the target is T3, PPARγ LBD / TRAP220/MED1 coactivator peptide (Homo sapiens, UniProt P37231).
T3 construct: residues 203–477 (isoform 1 numbering) with a TEV-cleavable N-terminal hexa-his-tag; made in house; host or cells: Escherichia coli BL21(DE3), pET46 plasmid
T3 sequence (P37231 203-477 isoform P37231-2): T1 sequence (P37231 203-477 isoform P37231-2)
In words: TR-FRET coregulator interaction assay, TRAP220/MED1 coactivator peptide. The class given is biochemical. To be noted: for IC50: 4 nM 6xHis-PPARγ LBD, 400 nM FITC-TRAP220/MED1 peptide, 1 h at 25 °C, n = 3, read-out: MED1 TR-FRET IC50 (decrease in TRAP220/MED1 peptide interaction).
Text: as §1, §2, §3
For orientation: TR-FRET usually uses a lanthanide donor and a delayed reading to cut background.

The EC50 is the concentration needed to bring the measured effect to its halfway point. In the case of `O=C(Nc1ccccc1)c1cc([N+](=O)[O-])ccc1Cl` [GW9662], in experiment [1], the EC50 came to 17 nM. Further, in experiment [1] (TR-FRET ratio), the “effect on NCoR1 corepressor peptide interaction, TR-FRET efficacy (in words)” value is “relatively little change in efficacy”. Further, in experiment [2] (3xPPRE-luciferase reporter), the “effect on PPARγ-mediated transcription (in words)” value is “no change in activity”. For the same compound, the “effect on TRAP220/MED1 coactivator peptide interaction, TR-FRET efficacy (in words)” value in experiment [3] (TR-FRET ratio) is given as “relatively little change in efficacy”.

As to `CS(=O)(=O)c1ccc(C#N)cc1-c1cc(=O)c2c(F)cc(F)cc2[nH]1` [FX-909, 3-(5,7-difluoro-4-oxo-1,4-dihydroquinolin-2-yl)-4-(methylsulfonyl)benzonitrile], the EC50 in experiment [1] came to 33 nM. The IC50 in experiment [2] stood at 1.31 nM; in experiment [3], 16 nM.

In the case of `N#Cc1ccc(NC(=O)c2cc([N+](=O)[O-])ccc2Cl)cn1` [SR33068], the EC50 in experiment [1] is 17 nM. Moreover, the IC50 in experiment [2] amounted to 1.58 nM; in experiment [3], 5 nM.
